Reference: patent US11166959B2, “Isofuranone compounds useful as HPK1 inhibitors” (BRISTOL-MYERS SQUIBB COMPANY, priority 2017, dated 2021)
Where two headings read alike, the source gives them in different places.

What was measured:
HPK1 = molecular target: T1, HPK1 (Homo sapiens, UniProt Q92918); assay: HPK1 Inhibition Assay (kinase reaction, Caliper capillary electrophoresis); assay type: biochemical; conditions: for IRAK4/HPK1 Ratio: ratio of the IRAK4 IC50 value to the HPK1 IC50 value
T1 construct: purchased SignalChem M23-11G
T1 sequence (Q92918 1-346 limits assumed): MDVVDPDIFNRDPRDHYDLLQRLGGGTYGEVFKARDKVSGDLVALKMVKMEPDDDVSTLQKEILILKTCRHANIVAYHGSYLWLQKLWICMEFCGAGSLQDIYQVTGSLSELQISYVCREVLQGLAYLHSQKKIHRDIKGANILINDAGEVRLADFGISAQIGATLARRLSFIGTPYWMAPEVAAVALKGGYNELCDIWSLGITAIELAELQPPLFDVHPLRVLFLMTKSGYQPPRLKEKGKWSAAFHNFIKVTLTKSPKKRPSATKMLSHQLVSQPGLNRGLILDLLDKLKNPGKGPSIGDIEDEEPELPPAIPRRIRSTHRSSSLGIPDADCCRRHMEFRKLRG
Protocol: (§1) The reactions were incubated out for three hours and quenched with 1 mM EDTA solution. The reaction incubation time and enzyme concentration were optimized to obtain a maximum peptide substrate conversion of 20-30%. The reaction mixtures were analyzed by capillary electrophoresis on a Caliper LabChip EZ Reader to resolve phosphorylated and unphosphorylated peptide species and determine peptide substrate conversion. […] The compounds were dissolved in DMSO and evaluated at 11 concentrations to determine the IC50 values.

IRAK4 = molecular target: T2, IRAK4 (Homo sapiens, UniProt Q9NWZ3); assay: IRAK4 Inhibition Assay (kinase reaction, Caliper capillary electrophoresis); assay type: biochemical; conditions: 500 μM ATP, 11 concentrations
T2 construct: 1 nM IRAK4 (160-460); purchased SignalChem M24016
T2 sequence (Q9NWZ3 160-460): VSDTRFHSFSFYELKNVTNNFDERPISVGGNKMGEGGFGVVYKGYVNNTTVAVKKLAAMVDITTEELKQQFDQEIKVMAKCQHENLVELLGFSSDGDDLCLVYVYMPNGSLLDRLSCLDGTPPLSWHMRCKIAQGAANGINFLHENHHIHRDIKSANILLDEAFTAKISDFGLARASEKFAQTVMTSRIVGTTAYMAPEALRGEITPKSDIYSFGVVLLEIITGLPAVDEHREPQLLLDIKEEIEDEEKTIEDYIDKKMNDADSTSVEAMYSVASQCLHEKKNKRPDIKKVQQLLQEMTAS
Protocol: as §1, with “determine” for “determine the”

[1] = 0.625 nM HPK1, 22 μM ATP, 11 concentrations, read-out: HPK1 IC50

| Structure (SMILES) | IC50 (HPK1; [1]) [nM] | IRAK4/HPK1 Ratio (HPK1) | IC50 (IRAK4) [nM] | IC50 (HPK1) [nM] |
| --- | --- | --- | --- | --- |
| CC1(C)OC(=O)c2ccc(Nc3ncc(-c4nnc(C5(OC(=O)N6CC(F)(F)C6)CC5)o4)c(N[C@H](CO)c4ccccc4)n3)cc21 [Example 70, 1-(5-{2-[(3,3-dimethyl-1-oxo-1,3-dihydro-2-benzofuran-5-yl)amino]-4-{[(1S)-2-hydroxy-1-phenylethyl]amino}pyrimidin-5-yl}-1,3,4-oxadiazol-2-yl)cyclopropyl 3,3-difluoroazetidine-1-carboxylate] | 50 to 250 | B (B=10 to 50) | 250 to 1000 | – |
| CC1(C)OC(=O)c2ccc(Nc3cc(N[C@H](CO)C4CC4)c(-c4nc(C5CC5)no4)cn3)cc21 [Example 79, 5-{[5-(3-cyclopropyl-1,2,4-oxadiazol-5-yl)-4-{[(1S)-1-cyclopropyl-2-hydroxyethyl]amino}pyridin-2-yl]amino}-3,3-dimethyl-1,3-dihydro-2-benzofuran-1-one] | 50 to 250 | B (B=10 to 50) | 250 to 1000 | – |
| COCCNC(=O)c1cnc(Nc2ccc3c(c2)C(C)(C)OC3=O)nc1N[C@H](CO)c1ccccc1 [Example 8, 2-[(3,3-dimethyl-1-oxo-1,3-dihydro-2-benzofuran-5-yl)amino]-4-{[(1S)-2-hydroxy-1-phenylethyl]amino}-N-(2-methoxyethyl)pyrimidine-5-carboxamide] | < 50 | B (B=10 to 50) | 50 to 250 | – |
| COC(=O)NC12CC(c3noc(-c4cnc(Nc5ccc6c(c5)C(C)(C)OC6=O)nc4N[C@H](CO)c4ccccc4)n3)(C1)C2 [Example 50, Methyl N-[3-(5-{2-[(3,3-dimethyl-1-oxo-1,3-dihydro-2-benzofuran-5-yl)amino]-4-{[(1S)-2-hydroxy-1-phenylethyl]amino}pyrimidin-5-yl}-1,2,4-oxadiazol-3-yl)bicyclo[1.1.1]pentan-1-yl]carbamate] | < 50 | C (C=>50) | 250 to 1000 | – |
| CC1(C)OC(=O)c2ccc(Nc3ncc(C(=O)NCC4(CN5CCOCC5)CC4)c(N[C@H](CO)c4ccccc4)n3)cc21 [Example 26, 2-[(3,3-dimethyl-1-oxo-1,3-dihydro-2-benzofuran-5-yl)amino]-4-{[(1S)-2-hydroxy-1-phenylethyl]amino}-N-({1-[(morpholin-4-yl)methyl]cyclopropyl}methyl)pyrimidine-5-carboxamide] | < 50 | C (C=>50) | 250 to 1000 | – |
| Cc1noc(-c2cnc(Nc3ccc4c(c3)C(C)(C)OC4=O)nc2NCc2ccccc2C(C)(C)O)n1 [Example 72, 5-{[4-({[2-(2-hydroxypropan-2-yl)phenyl]methyl}amino)-5-(3-methyl-1,2,4-oxadiazol-5-yl)pyrimidin-2-yl]amino}-3,3-dimethyl-1,3-dihydro-2-benzofuran-1-one] | 50 to 250 | B (B=10 to 50) | 250 to 1000 | – |
| Cc1ccccc1CNC(=O)c1cnc(Nc2ccc3c(c2)C(C)(C)OC3=O)nc1N[C@H](CO)c1ccccc1 [Example 16, 2-[(3,3-dimethyl-1-oxo-1,3-dihydro-2-benzofuran-5-yl)amino]-4-{[(1S)-2-hydroxy-1-phenylethyl]amino}-N-[(2-methylphenyl)methyl]pyrimidine-5-carboxamide] | 50 to 250 | B (B=10 to 50) | 250 to 1000 | – |
| CC1(C)OC(=O)c2ccc(Nc3cc(N[C@H](CO)c4ccccc4)c(-c4nc(C56CCN(CC5)CC6)no4)cn3)nc21 [Example 81, 2-{[5-(3-{1-azabicyclo[2.2.2]octan-4-yl}-1,2,4-oxadiazol-5-yl)-4-{[(1S)-2-hydroxy-1-phenylethyl]amino}pyridin-2-yl]amino}-7,7-dimethyl-5H,7H-furo[3,4-b]pyridin-5-one] | – | C (C=>50) | 50 to 250 | < 50 |
| CC1(C)OC(=O)c2ccc(Nc3cc(N[C@H](CO)c4ccccc4)c(-c4nnc(C5CC5)o4)cn3)nc21 [Example 86, 2-{[5-(5-cyclopropyl-1,3,4-oxadiazol-2-yl)-4-{[(1S)-2-hydroxy-1-phenylethyl]amino}pyridin-2-yl]amino}-7,7-dimethyl-5H,7H-furo[3,4-b]pyridin-5-one] | < 50 | B (B=10 to 50) | 50 to 250 | – |
| CC1(C)OC(=O)c2ccc(Nc3ncc(C(=O)NNC(=O)C4CC4)c(N[C@H](CO)c4ccccc4)n3)cc21 [Example 62, (S)—N′-(cyclopropanecarbonyl)-2-((3,3-dimethyl-1-oxo-1,3-dihydroisobenzofuran-5-yl)amino)-4-((2-hydroxy-1-phenylethyl)amino)pyrimidine-5-carbohydrazide] | < 50 | C (C=>50) | 250 to 1000 | – |
| CC1(C)OC(=O)c2ccc(Nc3ncc(C(=O)NCC4CC(F)(F)C4)c(N[C@H](CO)c4ccccc4)n3)cc21 [Example 4, N-[(3,3-difluorocyclobutyl)methyl]-2-[(3,3-dimethyl-1-oxo-1,3-dihydro-2-benzofuran-5-yl)amino]-4-{[(1S)-2-hydroxy-1-phenylethyl]amino}pyrimidine-5-carboxamide] | < 50 | B (B=10 to 50) | 250 to 1000 | – |

The next lines start with results.

| IC50 (HPK1; [1]) [nM] | IRAK4/HPK1 Ratio (HPK1) | IC50 (IRAK4) [nM] | Structure (SMILES) | IC50 (HPK1) [nM] |
| --- | --- | --- | --- | --- |
| < 50 | C (C=>50) | 50 to 250 | CC1(C)OC(=O)c2ccc(Nc3ncc(-c4nc(C5CCOCC5)no4)c(N[C@H](CO)c4ccccc4)n3)cc21 [Example 33, 5-[(4-{[(1S)-2-hydroxy-1-phenylethyl]amino}-5-[3-(oxan-4-yl)-1,2,4-oxadiazol-5-yl]pyrimidin-2-yl)amino]-3,3-dimethyl-1,3-dihydro-2-benzofuran-1-one] | – |
| < 50 | B (B=10 to 50) | 50 to 250 | CC1(C)OC(=O)c2ccc(Nc3ncc(C4=NCC5(CCOCC5)O4)c(N[C@H](CO)c4ccccc4)n3)cc21 [Example 27, 5-[(5-{1,8-dioxa-3-azaspiro[4.5]dec-2-en-2-yl}-4-{[(1S)-2-hydroxy-1-phenylethyl]amino}pyrimidin-2-yl)amino]-3,3-dimethyl-1,3-dihydro-2-benzofuran-1-one] | – |
| < 50 | C (C=>50) | 250 to 1000 | CC1(C)OC(=O)c2ccc(Nc3ncc(-c4nc(CN5CCOCC5)no4)c(N[C@H](CO)c4ccccc4)n3)cc21 [Example 32, 5-[(4-{[(1S)-2-hydroxy-1-phenylethyl]amino}-5-{3-[(morpholin-4-yl)methyl]-1,2,4-oxadiazol-5-yl}pyrimidin-2-yl)amino]-3,3-dimethyl-1,3-dihydro-2-benzofuran-1-one] | – |
| < 50 | C (C=>50) | 250 to 1000 | CC1(C)OC(=O)c2ccc(Nc3ncc(-c4n[nH]c(=O)o4)c(N[C@H](CO)c4ccccc4)n3)cc21 [Example 52, 5-{2-[(3,3-dimethyl-1-oxo-1,3-dihydro-2-benzofuran-5-yl)amino]-4-{[(1S)-2-hydroxy-1-phenylethyl]amino}pyrimidin-5-yl}-2,3-dihydro-1,3,4-oxadiazol-2-one] | – |
| < 50 | C (C=>50) | 250 to 1000 | CC1(C)OC(=O)c2ccc(Nc3ncc(C(=O)NN)c(N[C@H](CO)c4ccccc4)n3)cc21 [Example 51, 2-[(3,3-dimethyl-1-oxo-1,3-dihydro-2-benzofuran-5-yl)amino]-4-{[(1S)-2-hydroxy-1-phenylethyl]amino}pyrimidine-5-carbohydrazide] | – |
| < 50 | C (C=>50) | 50 to 250 | CC(C)(O)c1nnc(-c2cnc(Nc3ccc4c(c3)C(C)(C)OC4=O)nc2N[C@H](CO)c2ccccc2)o1 [Example 61, 5-[(4-{[(1S)-2-hydroxy-1-phenylethyl]amino}-5-[5-(2-hydroxypropan-2-yl)-1,3,4-oxadiazol-2-yl]pyrimidin-2-yl)amino]-3,3-dimethyl-1,3-dihydro-2-benzofuran-1-one] | – |
| < 50 | C (C=>50) | 250 to 1000 | CC1(C)OC(=O)c2ccc(Nc3ncc(-c4nnc(-c5cccnc5)o4)c(N[C@H](CO)c4ccccc4)n3)cc21 [Example 57, 5-[(4-{[(1S)-2-hydroxy-1-phenylethyl]amino}-5-[5-(pyridin-3-yl)-1,3,4-oxadiazol-2-yl]pyrimidin-2-yl)amino]-3,3-dimethyl-1,3-dihydro-2-benzofuran-1-one] | – |
